Experimental data reported in patent US20090163442A1, “TREATMENT OF CANCER WITH 2-DEOXYGALACTOSE” (priority 2007, published 2009).
“And” between values parts separate entries of the source, which are not always exact repeats. Identical values can stand only once.

Key:
[1] = system: tumor cell lines and types; conditions: Laszlo et al. 1958; cited from earlier work
tumor = conditions: cited from earlier work; for survival time / tumor growth: animal studies, Laszlo et al. 1960
[2] = system: hepatocellular carcinoma cell lines; test: Sulforhodamine B (SRB) growth inhibition assay; assay type: cell-based, Human; conditions: continuous treatment 72 h
Protocol: The cells are cultured at 37 degrees C. in a humidified atmosphere containing 5% CO2. For passaging, cells grown in 75 cm2 flasks (6070% confluency) are washed with PBS and dissolved from the flasks with trypsin (Gibco BRL) before being plated. Ten thousand cells are plated into each well of a 96-well microtiter plate in 100 ul of medium. The cells are then incubated for 24 h at 37 degrees C. in a humidified atmosphere containing 5% CO2 prior to exposure to the 2-DG analog or other anti-cancer agent. Cultures are treated with a range of concentrations of 2-DGaI or a 2-DGaI analog solubilized in cell culture medium, diluted 100× to the desired concentration, continuously for 72 h. Docetaxel (Taxotere™, Aventis Pharmaceuticals, Inc.) solubilized in 100% DMSO and diluted 1000× to the desired concentration, is used as a positive control. The sulforhodamine B (SRB) assay, a dye-based method for determining cell number by virtue of SRB binding to basic amino acids of cellular macromolecules, is employed to assess the growth inhibitory activity of 2-DGal or a 2-DGal analog.

[3] = system: liver tumor serially passaged in nude mice; test: Tumor growth delay study in a mouse xenograft model; assay type: in vivo; conditions: in combination with cisplatin (1 mg/kg i.p. days 1 to 5); 750 mg/kg orally twice daily; versus cisplatin alone
Description: The efficacy of 2-DGaI or a 2-DGaI analog in combination with cisplatin can be compared with cisplatin alone in a tumor growth delay study in a mouse xenograft model. Small pieces of tumor, such as a liver tumor serially passaged in nude mice, are implanted subcutaneously in nude mice, and the tumors allowed to grow to 25 mm^2. Mice are then randomized to receive no treatment, treatment with 2-DGal or a 2-DGal analog alone, treatment with cisplatin alone, or treatment with both 2-DGal or a 2-DGaI analog and cisplatin. Cisplatin is dosed i.p. at 1 mg/kg on days 1 to 5.2-DGaI or a 2-DGaI analog is dosed orally at 750 mg/kg, twice daily, for the duration of the experiment. Each mouse is sacrificed when its tumor volume reaches 1000 mg.

CD 1 mice = test: Liver toxicity study of 2-Fluoro-2-deoxygalactose, serum chemistry and clinical observations; assay type: in vivo; conditions: for Alt (alanine aminotransferase) / Ast (aspartate aminotransferase) / Tbili (total bilirubin): about 0.2 ml, male CD-1 mice, Day 2, individual animals
Protocol: The objective of this study was to evaluate the liver toxicity of 2-Fluoro-2-deoxygalactose when administered via intraperitoneal or intravenous injection to CD 1 mice. The study was initiated on Jan. 11, 2007, and consisted of three groups with three (3) male mice per group. On Day 1, each mouse GROUP was administered either about 0.2 ml of 10% 2 Fluoro 2 Deoxygalactose, intraperitoneally, about 0.2 ml of 10% 2 Fluoro 2 Deoxygalactose, intravenously, or about 0.2 ml of sterile 0.9% sodium chloride for injection, USP, intravenously. Criteria for evaluation included clinical observations and limited serum chemistry parameters (alanine aminotransferase [ALT], aspartate aminotransferase [AST], and total bilirubin). On Day 2, all animals were euthanized, blood was collected, and livers were collected and stored for potential histopathological evaluation.
Clinical observations were performed at least once daily.

normal liver tissue = test: Uptake of 2-Fluoro-2-deoxygalactose by normal liver tissue

## O=CC[C@@H](O)[C@H](O)[C@H](O)CO [2-DG, 2-Deoxy-D-glucose, reference compound]
[1]
  inhibition of glycolysis: inhibit glycolysis
tumor; Sokoloff 1955, Ball 1957
  tumor growth in animal models: retard tumor growth
tumor
  survival time: modest prolongation of survival time
  tumor growth: inhibition of tumor growth

## O=CC[C@@H](O)[C@@H](O)[C@H](O)CO [2-DGal, 2-Deoxy-D-galactose]
[2]
  growth of hepatocellular carcinoma cell lines: inhibits the growth
[3]
  tumor growth delay: delays tumor growth significantly more than treatment with cisplatin alone
[1]
  inhibition of glycolysis: inhibit glycolysis
tumor
  survival time: modest prolongation of survival time
  tumor growth: inhibition of tumor growth
tumor; model systems of Laszlo et al. 1960
  efficacy relative to 2-DG: less efficacious

## O=C[C@H](F)[C@@H](O)[C@@H](O)[C@H](O)CO [2-Fluoro-2-deoxygalactose, 2-fluoro-2-deoxy-D-galactose]
CD 1 mice; CD1 mice, intraperitoneally
  concentration of transaminases: increases in concentration of transaminases
CD 1 mice; Group 2, 10% 2-Fluoro-2-deoxygalactose intraperitoneally
  Alt (alanine aminotransferase): 109 U/L and 73 U/L and 72 U/L
CD 1 mice; Group 2, 10% intraperitoneally
  Ast (aspartate aminotransferase): 234 U/L and 114 U/L and 118 U/L
  Tbili (total bilirubin): 0.2 mg/dL (2×) and 0.3 mg/dL
CD 1 mice; Group 3, 10% 2-Fluoro-2-deoxygalactose intravenously
  Alt (alanine aminotransferase): 45 U/L and 124 U/L and 30 U/L
CD 1 mice; Group 3, 10% intravenously
  Ast (aspartate aminotransferase): 112 U/L and 116 U/L and 52 U/L
  Tbili (total bilirubin): 0.2 mg/dL (2×) and 0.1 mg/dL
CD 1 mice; intraperitoneal administered group
  gross pathology finding: gross pathology finding of a single animal
CD 1 mice; intraperitoneal group, versus the two expected controls of Group 1
  rise in ALT and AST over normal animals: 2-3 ×
CD 1 mice; intraperitoneal or intravenous single injection, CD 1 mice
  unscheduled deaths: no unscheduled deaths
CD 1 mice; intraperitoneal or intravenous single injection, clinical observations at least once daily
  test article related clinical findings: no adverse test article related clinical findings
CD 1 mice; intravenous group, at 24 hours
  elevated enzymes (ALT, AST): one animal with elevated enzymes at 24 hours and two that has returned to normal

## O=C[C@H](O)[C@@H](O)[C@@H](O)[C@H](O)CO [galactose]
Normal liver tissue
  inhibition of uptake of 2-Fluoro-2-deoxygalactose: markedly inhibits the uptake
